# Measured values reported in ChEMBL document CHEMBL3885861, “Open TG-GATES”.
# Species: Rattus norvegicus
# Assay: Open TG-GATES - Regimen: Single
# Assay type: toxicity, organism-based, Sprague-Dawley
# Set-up: regimen Single, gender Male, age 6 weeks
# Settings: in vivo, po, 24 h, route gavage; for Bas / Eos / Hb / Ht / Lym / MCH / MCHC / MCV / Mono / Neu / Plat / RBC / Ret / WBC: tissue Blood; for KIDNEY_L / KIDNEY_R / KIDNEY_TOTAL: tissue Kidney; for LIVER: tissue Liver; for A/G / ALP / ALT / AST / BUN / CRE / Ca / Cl / DBIL / GLC / IP / K / LDH / Na / PL / RALB / TBIL / TC / TG / TP / gamma-GTP: tissue Plasma
structure (smiles),measurement,setting,value
O=[N+]([O-])c1ccc2c(c1)Cc1ccccc1-2 [2-NITROFLUORENE],TERMINAL_BW,"0 mg/kg, dose level Control",226.9 g
same,Bas,"0 mg/kg, dose level Control",0%
same,Eos,"0 mg/kg, dose level Control",0.8%
same,Hb,"0 mg/kg, dose level Control",12.7 g/dL
same,Ht,"0 mg/kg, dose level Control",38.9%
same,Lym,"0 mg/kg, dose level Control",78.4%
same,MCH,"0 mg/kg, dose level Control",20.5 pg
same,MCHC,"0 mg/kg, dose level Control",32.5%
same,MCV,"0 mg/kg, dose level Control",63.1 fL
same,Mono,"0 mg/kg, dose level Control",3.2%
same,Neu,"0 mg/kg, dose level Control",16.8%
same,Plat,"0 mg/kg, dose level Control",121 x10_4/uL
same,RBC,"0 mg/kg, dose level Control",618 x10_4/ul
same,Ret,"0 mg/kg, dose level Control",8.6%
same,WBC,"0 mg/kg, dose level Control",96.1 x10_2/uL
same,KIDNEY_L,"0 mg/kg, dose level Control",0.9 g
same,KIDNEY_R,"0 mg/kg, dose level Control",0.9 g
same,KIDNEY_TOTAL,"0 mg/kg, dose level Control",1.9 g
same,LIVER,"0 mg/kg, dose level Control",10.2 g
same,A/G,"0 mg/kg, dose level Control",1.1
same,ALP,"0 mg/kg, dose level Control",1444.8 IU/L
same,ALT,"0 mg/kg, dose level Control",41.6 IU/L
same,AST,"0 mg/kg, dose level Control",69.6 IU/L
same,BUN,"0 mg/kg, dose level Control",16.6 mg/dL
same,CRE,"0 mg/kg, dose level Control",0.2 mg/dL
same,Ca,"0 mg/kg, dose level Control",10.7 mg/dL
same,Cl,"0 mg/kg, dose level Control",104.2 meq/L
same,DBIL,"0 mg/kg, dose level Control",0.006 mg/dL
same,GLC,"0 mg/kg, dose level Control",193.2 mg/dL
same,IP,"0 mg/kg, dose level Control",6.8 mg/dL
same,K,"0 mg/kg, dose level Control",4.1 meq/L
same,LDH,"0 mg/kg, dose level Control",153.2 IU/L
same,Na,"0 mg/kg, dose level Control",141.1 meq/L
same,PL,"0 mg/kg, dose level Control",149 mg/dL
same,RALB,"0 mg/kg, dose level Control",2.8 g/dL
same,TBIL,"0 mg/kg, dose level Control",0 mg/dL
same,TC,"0 mg/kg, dose level Control",79.8 mg/dL
same,TG,"0 mg/kg, dose level Control",105.8 mg/dL
same,TP,"0 mg/kg, dose level Control",5.4 g/dL
same,gamma-GTP,"0 mg/kg, dose level Control",0.7 IU/L
same,TERMINAL_BW,"100 mg/kg, dose level Low",220.2 g
same,Bas,"100 mg/kg, dose level Low",0%
same,Eos,"100 mg/kg, dose level Low",0.2%
same,Hb,"100 mg/kg, dose level Low",12.8 g/dL
same,Ht,"100 mg/kg, dose level Low",39.6%
same,Lym,"100 mg/kg, dose level Low",79.6%
same,MCH,"100 mg/kg, dose level Low",20.4 pg
same,MCHC,"100 mg/kg, dose level Low",32.5%
same,MCV,"100 mg/kg, dose level Low",62.8 fL
same,Mono,"100 mg/kg, dose level Low",3.6%
same,Neu,"100 mg/kg, dose level Low",15.4%
same,Plat,"100 mg/kg, dose level Low",123.5 x10_4/uL
same,RBC,"100 mg/kg, dose level Low",631.6 x10_4/ul
same,Ret,"100 mg/kg, dose level Low",8.1%
same,WBC,"100 mg/kg, dose level Low",113.4 x10_2/uL
same,KIDNEY_L,"100 mg/kg, dose level Low",0.9 g
same,KIDNEY_R,"100 mg/kg, dose level Low",1 g
same,KIDNEY_TOTAL,"100 mg/kg, dose level Low",1.9 g
same,LIVER,"100 mg/kg, dose level Low",10.1 g
same,A/G,"100 mg/kg, dose level Low",1.2
same,ALP,"100 mg/kg, dose level Low",1937 IU/L
same,ALT,"100 mg/kg, dose level Low",39.8 IU/L
same,AST,"100 mg/kg, dose level Low",82.2 IU/L
same,BUN,"100 mg/kg, dose level Low",15.6 mg/dL
same,CRE,"100 mg/kg, dose level Low",0.2 mg/dL
same,Ca,"100 mg/kg, dose level Low",10.5 mg/dL
same,Cl,"100 mg/kg, dose level Low",105.3 meq/L
same,DBIL,"100 mg/kg, dose level Low",0.02 mg/dL
same,GLC,"100 mg/kg, dose level Low",174.6 mg/dL
same,IP,"100 mg/kg, dose level Low",6.7 mg/dL
same,K,"100 mg/kg, dose level Low",4.3 meq/L
same,LDH,"100 mg/kg, dose level Low",259.2 IU/L
same,Na,"100 mg/kg, dose level Low",139.7 meq/L
same,PL,"100 mg/kg, dose level Low",124.6 mg/dL
same,RALB,"100 mg/kg, dose level Low",2.8 g/dL
same,TBIL,"100 mg/kg, dose level Low",0.012 mg/dL
same,TC,"100 mg/kg, dose level Low",64.2 mg/dL
same,TG,"100 mg/kg, dose level Low",64.7 mg/dL
same,TP,"100 mg/kg, dose level Low",5.2 g/dL
same,gamma-GTP,"100 mg/kg, dose level Low",0.7 IU/L
same,TERMINAL_BW,"300 mg/kg, dose level Middle",216.7 g
same,Bas,"300 mg/kg, dose level Middle",0%
same,Eos,"300 mg/kg, dose level Middle",0.4%
same,Hb,"300 mg/kg, dose level Middle",13.1 g/dL
same,Ht,"300 mg/kg, dose level Middle",40.4%
same,Lym,"300 mg/kg, dose level Middle",73.4%
same,MCH,"300 mg/kg, dose level Middle",20.4 pg
same,MCHC,"300 mg/kg, dose level Middle",32.6%
same,MCV,"300 mg/kg, dose level Middle",62.6 fL
same,Mono,"300 mg/kg, dose level Middle",6%
same,Neu,"300 mg/kg, dose level Middle",18.2%
same,Plat,"300 mg/kg, dose level Middle",124.8 x10_4/uL
same,RBC,"300 mg/kg, dose level Middle",645 x10_4/ul
same,Ret,"300 mg/kg, dose level Middle",8.6%
same,WBC,"300 mg/kg, dose level Middle",91 x10_2/uL
same,KIDNEY_L,"300 mg/kg, dose level Middle",1 g
same,KIDNEY_R,"300 mg/kg, dose level Middle",1 g
same,KIDNEY_TOTAL,"300 mg/kg, dose level Middle",1.9 g
same,LIVER,"300 mg/kg, dose level Middle",9.6 g
same,A/G,"300 mg/kg, dose level Middle",1.2
same,ALP,"300 mg/kg, dose level Middle",1406.4 IU/L
same,ALT,"300 mg/kg, dose level Middle",35 IU/L
same,AST,"300 mg/kg, dose level Middle",83.2 IU/L
same,BUN,"300 mg/kg, dose level Middle",16.3 mg/dL
same,CRE,"300 mg/kg, dose level Middle",0.2 mg/dL
same,Ca,"300 mg/kg, dose level Middle",10.2 mg/dL
same,Cl,"300 mg/kg, dose level Middle",104.9 meq/L
same,DBIL,"300 mg/kg, dose level Middle",0.02 mg/dL
same,GLC,"300 mg/kg, dose level Middle",165.6 mg/dL
same,IP,"300 mg/kg, dose level Middle",7.7 mg/dL
same,K,"300 mg/kg, dose level Middle",4.5 meq/L
same,LDH,"300 mg/kg, dose level Middle",203 IU/L
same,Na,"300 mg/kg, dose level Middle",139.3 meq/L
same,PL,"300 mg/kg, dose level Middle",115.2 mg/dL
same,RALB,"300 mg/kg, dose level Middle",2.8 g/dL
same,TBIL,"300 mg/kg, dose level Middle",0.022 mg/dL
same,TC,"300 mg/kg, dose level Middle",61.2 mg/dL
same,TG,"300 mg/kg, dose level Middle",47.3 mg/dL
same,TP,"300 mg/kg, dose level Middle",5.2 g/dL
same,gamma-GTP,"300 mg/kg, dose level Middle",0.7 IU/L
same,TERMINAL_BW,"1000 mg/kg, dose level High",211.8 g
same,Bas,"1000 mg/kg, dose level High",0%
same,Eos,"1000 mg/kg, dose level High",0.4%
same,Hb,"1000 mg/kg, dose level High",13.6 g/dL
same,Ht,"1000 mg/kg, dose level High",41.6%
same,Lym,"1000 mg/kg, dose level High",79.4%
same,MCH,"1000 mg/kg, dose level High",21 pg
same,MCHC,"1000 mg/kg, dose level High",32.7%
same,MCV,"1000 mg/kg, dose level High",64.2 fL
same,Mono,"1000 mg/kg, dose level High",4%
same,Neu,"1000 mg/kg, dose level High",15.6%
same,Plat,"1000 mg/kg, dose level High",127.8 x10_4/uL
same,RBC,"1000 mg/kg, dose level High",647.8 x10_4/ul
same,Ret,"1000 mg/kg, dose level High",8.3%
same,WBC,"1000 mg/kg, dose level High",75.6 x10_2/uL
same,KIDNEY_L,"1000 mg/kg, dose level High",0.9 g
same,KIDNEY_R,"1000 mg/kg, dose level High",0.9 g
same,KIDNEY_TOTAL,"1000 mg/kg, dose level High",1.8 g
same,LIVER,"1000 mg/kg, dose level High",9.6 g
same,A/G,"1000 mg/kg, dose level High",1.1
same,ALP,"1000 mg/kg, dose level High",1276 IU/L
same,ALT,"1000 mg/kg, dose level High",29.8 IU/L
same,AST,"1000 mg/kg, dose level High",74.4 IU/L
same,BUN,"1000 mg/kg, dose level High",12.8 mg/dL
same,CRE,"1000 mg/kg, dose level High",0.1 mg/dL
same,Ca,"1000 mg/kg, dose level High",10.3 mg/dL
same,Cl,"1000 mg/kg, dose level High",104.8 meq/L
same,DBIL,"1000 mg/kg, dose level High",0.008 mg/dL
same,GLC,"1000 mg/kg, dose level High",183.8 mg/dL
same,IP,"1000 mg/kg, dose level High",7.6 mg/dL
same,K,"1000 mg/kg, dose level High",4.1 meq/L
same,LDH,"1000 mg/kg, dose level High",313.2 IU/L
same,Na,"1000 mg/kg, dose level High",141 meq/L
same,PL,"1000 mg/kg, dose level High",112.4 mg/dL
same,RALB,"1000 mg/kg, dose level High",2.9 g/dL
same,TBIL,"1000 mg/kg, dose level High",0.01 mg/dL
same,TC,"1000 mg/kg, dose level High",57.2 mg/dL
same,TG,"1000 mg/kg, dose level High",47.6 mg/dL
same,TP,"1000 mg/kg, dose level High",5.5 g/dL
same,gamma-GTP,"1000 mg/kg, dose level High",0.8 IU/L
